Measured values as given in patent publication US20120316062A1 (priority 2009, published 2012).
Like-named read-outs stand apart in the source and are kept apart here.

Key:
Alternaria solani = assay: Activity against Alternaria solani in the microtiterplate test; format: cell-based; conditions: single active, growth at 405 nm 7 days after inoculation, 18° C
Pyricularia oryzae = format: cell-based; conditions: single active, growth at 405 nm 7 days after inoculation, 18° C

Row | Structure (SMILES) | Observed efficacy (Alternaria solani; 16 ppm) | Observed efficacy (Pyricularia oryzae; 1 ppm) | Observed efficacy (Alternaria solani; 0.063 ppm) | Observed efficacy (Pyricularia oryzae; 0.004 ppm)
1 | O=C(NC(=O)c1c(F)cccc1F)Nc1ccc(Oc2ccc(C(F)(F)F)cc2Cl)cc1F [flufenoxuron] | 0 | 6 | – | –
2 | COC(=O)N(OC)c1ccccc1COc1ccn(-c2ccc(Cl)cc2)n1 [pyraclostrobin] | – | – | 56 | 23
